# Results as given in paper PMC12238837, “DCAF16‐Based Covalent Molecular Glues for Targeted Protein Degradation of Histone Deacetylases” (Archiv Der Pharmazie, 2025).
# Assays:
# [1] = molecular target: T1, HDAC1 (Homo sapiens, UniProt Q13547); experiment: HDAC enzyme inhibition assay (ZMAL substrate), HDAC1; format: biochemical; parameters: purchased BPS Bioscience 50051; details: n = 2, mean ± SD
# Experimental: (§1) The total assay volume of 50 μL (HDAC2/3/6 max. 1% DMSO; HDAC1 max. 5% DMSO) was incubated at 37°C for 90 min. Subsequently, 50 μL of trypsin (0.4 mg/mL) in trypsin buffer (50 mM Tris−HCl, pH 8.0, 100 mM NaCl) was added, followed by an additional 30 min of incubation at 37°C. Fluorescence (excitation λ = 355 nm, emission λ = 460 nm) was measured using a FLUOstar OPTIMA microplate reader. The IC50 was determined by plotting dose–response curves and performing nonlinear regression using GraphPad Prism.
# as §1, with “by” for “by an”, “dose response” for “dose–response”, “Prism.^[3-6]” for “Prism.”
# [2] = molecular target: HDAC2 (Homo sapiens, UniProt Q92769); experiment: HDAC enzyme inhibition assay (ZMAL substrate), HDAC2; format: biochemical; parameters: purchased BPS Bioscience 50052; details: n = 2, mean ± SD
# Chain of HDAC2 (Q92769 whole entry): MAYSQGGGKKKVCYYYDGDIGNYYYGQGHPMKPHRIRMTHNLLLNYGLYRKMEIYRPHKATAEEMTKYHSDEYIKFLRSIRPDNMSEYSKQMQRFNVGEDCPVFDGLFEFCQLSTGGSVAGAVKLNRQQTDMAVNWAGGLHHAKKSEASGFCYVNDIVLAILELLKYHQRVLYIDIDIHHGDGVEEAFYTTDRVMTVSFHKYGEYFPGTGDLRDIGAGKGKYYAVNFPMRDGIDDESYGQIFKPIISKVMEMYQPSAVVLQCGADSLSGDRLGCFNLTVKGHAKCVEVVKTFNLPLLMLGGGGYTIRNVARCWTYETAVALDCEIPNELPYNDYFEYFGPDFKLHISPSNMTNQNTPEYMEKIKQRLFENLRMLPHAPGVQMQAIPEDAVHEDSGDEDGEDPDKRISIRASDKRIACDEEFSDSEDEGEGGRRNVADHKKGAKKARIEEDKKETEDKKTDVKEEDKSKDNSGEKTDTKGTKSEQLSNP
# Experimental: as §1
# as §1, with “by” for “by an”, “dose response” for “dose–response”, “Prism.^[3-6]” for “Prism.”
# [3] = molecular target: T2, Human recombinant HDAC3/NcoR2 (Homo sapiens, UniProt O15379); experiment: HDAC enzyme inhibition assay (ZMAL substrate), HDAC3; format: biochemical; details: n = 2, mean ± SD
# T2 construct: purchased BPS Bioscience 50003
# T2 sequence (O15379 whole entry): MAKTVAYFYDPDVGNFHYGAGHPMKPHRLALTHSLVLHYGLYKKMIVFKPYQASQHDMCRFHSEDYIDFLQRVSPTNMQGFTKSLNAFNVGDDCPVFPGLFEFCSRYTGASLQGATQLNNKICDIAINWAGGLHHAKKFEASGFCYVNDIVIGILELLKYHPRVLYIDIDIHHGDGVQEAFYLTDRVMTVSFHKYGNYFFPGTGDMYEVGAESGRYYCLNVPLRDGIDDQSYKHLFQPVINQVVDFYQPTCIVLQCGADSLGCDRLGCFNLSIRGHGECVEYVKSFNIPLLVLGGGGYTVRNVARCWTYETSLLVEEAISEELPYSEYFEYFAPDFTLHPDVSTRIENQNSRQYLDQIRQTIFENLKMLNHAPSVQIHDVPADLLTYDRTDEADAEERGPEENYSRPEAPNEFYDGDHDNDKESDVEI
# T2 sequence (Q9Y618 395-489 partner limits assumed): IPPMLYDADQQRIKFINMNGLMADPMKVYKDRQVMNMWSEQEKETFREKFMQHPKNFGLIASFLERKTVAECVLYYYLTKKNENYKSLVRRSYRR
# Experimental: as §1
# as §1, with “by” for “by an”, “dose response” for “dose–response”, “Prism.^[3-6]” for “Prism.”
# [4] = molecular target: T1, HDAC1; experiment: HDAC1 degradation, western blot in MM.1S cells; format: cell-based; parameters: endogenous in cells; host or cells: MM.1S; details: 25 μM, 24 h, immunoblot
# Experimental: First, the multiple myeloma cell line MM.1S was treated with varying concentrations (1, 10, and 25 µM) of degraders 10a–d for 6 and 24 h, respectively. HDAC1 and HDAC6 were selected for investigation due to their critical roles in various diseases such as cancer. HDAC1 and HDAC6 protein levels were subsequently evaluated using western blot analysis. […] This limited efficacy could be due to insufficient incubation time of the compounds with MM.1S cells. […] All compounds still exerted no degradation of HDAC6 at different concentrations after 24 h of treatment. However, different from 10b–d, degrader 10a, which contains a hydroxamic acid as ZBG, achieved substantial degradation of HDAC1 with a maximal degradation (D max) value of 74% at 25 μM. Consequently, Compound 10a was selected for further biological evaluations based on the initial screening results.
# The MM.1S was obtained from ATCC (Manassas, VA, USA). MM.1S cells were cultivated in RPMI 1640 medium supplemented with 10% FBS, 100 IU/mL penicillin, 0.1 mg/mL streptomycin, and 1 mM sodium pyruvate at 37°C in a 5% CO2 atmosphere.
# (§2) The MM.1S cells (3 × 10^6 cells/mL) were seeded into cell culture flasks and, after 72 h, treated with the indicated concentration of compound or DMSO for the given time. Cell lysis was performed with Cell Extraction Buffer and the addition of Halt Protease Inhibitor Cocktail and phenylmethanesulfonyl fluoride. Protein content was determined by Pierce BCA Protein Assay Kit. Samples were denatured by Laemmli 2× Concentrate, and Precision Plus Protein Unstained Standard was used as a molecular weight marker in all cases. SDS‐PAGE was performed with 10% Mini‐PROTEAN TGX Stain‐Free Gel (Catalog# 458035, Bio‐Rad, Hercules, CA, USA) at 200 V for 50 min (Catalog# 458035, Bio‐Rad). Afterwards, proteins were transferred with the Trans‐Blot Turbo Transfer System to Immobilon‐FL PVDF membranes at 1.0 A for 30 min and incubated with 5% milk‐powder solution for 1 h at room temperature under slight agitation. […] The ChemiDoc XRS+ System was used for detection, and Image Lab Software 6.1 (Bio‐Rad, Hercules, CA, USA) for quantification.
# [5] = test system: acetylated histone H3 (indicator of reduced HDAC1‐3 activity); experiment: Cellular target engagement: immunoblot of acetylated histone H3; format: cell-based; details: MM.1S cells, 10 µM, 24 h
# Experimental: (§3) Immunoblot analysis of acetylated histone H3 (A) and α‐tubulin (B) in MM.1S cell lysates after treatment with the indicated compounds (10 µM) or vehicle (DMSO) for 24 h. Representative images from a total of n = 2 replicates.
# as §2, with “agitation. Subsequently, the membranes were incubated with anti‐HDAC1 (Catalog# 5356S, Cell Signaling Technology, Denver, MA, USA), anti‐HDAC2 (Catalog# 9959S, Cell Signaling Technology, Denver, MA, USA), anti‐HDAC3 (Catalog# 85057S, Cell Signaling Technology, Denver, MA, USA), anti‐HDAC4 (Catalog# 7628S, Cell Signaling Technology, Denver, MA, USA), anti‐HDAC6 (Catalog# 7558S, Cell Signaling Technology, Denver, MA, USA), anti‐acetyl‐histone H3 (Catalog# 9677S, Cell Signaling Technology, Denver, MA, USA), anti‐acetyl‐α‐tubulin (Catalog# 5335, Cell Signaling Technology, Denver, MA, USA), or anti‐GAPDH (Catalog# T0004, Affinity Biosciences, Cincinnati, OH, USA) antibody solutions in 1:1000–1:20000 dilutions at room temperature under slight agitation for 1 h, then put membranes at 4°C for overnight.” for “agitation.”
# [6] = test system: acetylated α‐tubulin (marker of decreased HDAC6 activity); experiment: Cellular target engagement: immunoblot of acetylated α-tubulin; format: cell-based; details: MM.1S cells, 10 µM, 24 h
# Experimental: as §3
# as §2, with “agitation. Subsequently, the membranes were incubated with anti‐HDAC1 (Catalog# 5356S, Cell Signaling Technology, Denver, MA, USA), anti‐HDAC2 (Catalog# 9959S, Cell Signaling Technology, Denver, MA, USA), anti‐HDAC3 (Catalog# 85057S, Cell Signaling Technology, Denver, MA, USA), anti‐HDAC4 (Catalog# 7628S, Cell Signaling Technology, Denver, MA, USA), anti‐HDAC6 (Catalog# 7558S, Cell Signaling Technology, Denver, MA, USA), anti‐acetyl‐histone H3 (Catalog# 9677S, Cell Signaling Technology, Denver, MA, USA), anti‐acetyl‐α‐tubulin (Catalog# 5335, Cell Signaling Technology, Denver, MA, USA), or anti‐GAPDH (Catalog# T0004, Affinity Biosciences, Cincinnati, OH, USA) antibody solutions in 1:1000–1:20000 dilutions at room temperature under slight agitation for 1 h, then put membranes at 4°C for overnight.” for “agitation.”
# T1 sequence (Q13547 whole entry): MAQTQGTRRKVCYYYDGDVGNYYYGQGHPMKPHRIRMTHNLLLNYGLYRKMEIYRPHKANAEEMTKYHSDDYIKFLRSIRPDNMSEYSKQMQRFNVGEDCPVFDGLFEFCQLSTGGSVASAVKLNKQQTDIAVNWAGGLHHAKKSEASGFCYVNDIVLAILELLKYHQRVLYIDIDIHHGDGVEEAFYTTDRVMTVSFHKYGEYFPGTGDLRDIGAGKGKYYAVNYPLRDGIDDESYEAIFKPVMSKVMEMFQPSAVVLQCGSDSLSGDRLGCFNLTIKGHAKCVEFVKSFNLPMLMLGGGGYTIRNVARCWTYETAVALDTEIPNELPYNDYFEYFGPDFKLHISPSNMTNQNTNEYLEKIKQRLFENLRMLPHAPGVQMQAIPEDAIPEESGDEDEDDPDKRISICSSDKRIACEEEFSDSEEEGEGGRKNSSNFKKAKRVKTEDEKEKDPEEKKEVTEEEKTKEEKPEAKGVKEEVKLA
IC50 [1],IC50 [2],IC50 [3],HDAC1 protein levels [4],SMILES,level of acetylated histone H3 [5],level of acetylated α-tubulin [6]
229 ± 4 nM,423 ± 63 nM,323 ± 22 nM,did not affect HDAC1 levels,"CCS(=O)(=O)N1CCN(C(=O)Cc2ccc(NC(=O)CCCCCCC(=O)NO)cc2)CC1 [10a‐nc, N ^1‐(4‐{2‐[4‐(Ethylsulfonyl)piperazin‐1‐yl]‐2‐Oxoethyl}phenyl)‐N ^8‐Hydroxyoctanediamide]",–,–
–,–,–,–,"C=CS(=O)(=O)N1CCNCC1 [Compound 8, 1‐(Vinylsulfonyl)piperazine, reference compound]",no effects,no effects
